# What was measured:
# [1] = tested on: HCT116 (colorectal cancer) cells; assay: IC50 (cell death) in HCT116 cells; type: cell-based; details: Homo sapiens, HCT-116; stated jointly for MCF7, BT549, A549, HCT116 and HeLa; HCT116 not in Table 3; read-out: IC50 values (death in multiple cancer cells)
# Protocol: (§1) 19 variants with different structural modifications have been made. […] In particular, it is shown that C75 causes death in multiple cancer cells with IC50 values in the 100 nM range, including breast cancers (MCF7, BT549), lung cancer (A549), colorectal cancer (HCT116) in addition to HeLa cells (cervical cancer).
# [2] = tested on: BT549 (breast ductal carcinoma) cells; assay: IC50 (viability) in BT549 cells; type: cell-based; details: Homo sapiens, BT-549
# Protocol: as §1
# HCT116 spheroids = assay: HCT116 multicellular tumour spheroids; type: cell-based
# Protocol: FIG. 5A) is a series of images of HeLa multicellular tumor spheroids (spheroids) treated with control (500 nM C87), empty nanoparticles, 500 nM C75 and 250 nM C75-loaded nanoparticles over 3 days. […] The scale bar for all images is 100 μm. FIG. 5B) is a series images of HeLa spheroids after three days of treatment with control (500 nM C87) or 500 nM C75. The spheroids were stained for fluorescein diacetate (to detect live cells) and propidium iodide (to detect dead cells). […] The scale bar for all images is 100 μm. FIG. 5C) is a series of images of HCT116 spheroids treated with control (1 μM C87), 500 nM C75, 1 μM C75 and 500 nM C75-loaded nanoparticles over 5 days. […] The borders of the spheroids treated with 1 μM C75 or with 500 nM C75-loaded nanoparticles became highly irregular, indicative of loss of spheroid integrity. FIG. 5D) is a series images of HCT116 spheroids after six days of treatment with control (1 μM C87) or 1 μM C75. The spheroids were stained for fluorescein diacetate (live cells) and propidium iodide (dead cells). […] FIG. 5E) is a line graph showing the growth in surface area (%) of HCT116 spheroids treated with control (1 μM C87), 500 nM C75 and 1 μM C75 after six days. FIG. 5F) is a series of images of A549 spheroids treated with control (750 nM C87), 500 nM C75, 1 μM C75 and 500 nM C75-loaded nanoparticles over 5 days. […] The scale bar for all images is 100 μm. […]
# [3] = tested on: H1299 (non-small cell lung cancer) cells; assay: Mitotic arrest (percentage of cells in mitosis) in H1299 cells; type: cell-based, human; details: H1299, least responsive line
# Protocol: FIG. 2A) is a line graph showing the percentage of HCT116 (p53−/−) cells, A549 cells, HeLa cells and H1299 cells in mitosis after treatment with various concentrations of C75 for one population doubling time. All of the cell lines show an increase in the proportion of mitotic cells after treatment with 200 nM C75. The bars indicate standard deviation. […] While the mitotic spindles were not dramatically altered by C75 in HFF1 cells, they were monopolar (as shown) or fragmented in the other cell types. […] The mitotic spindles were more strongly fragmented after C75 treatment in these cells vs. the cells in FIG. 2B). […] While mitotic spindles recovered bipolarity after removing nocodazole, they remained multipolar after removing C75. FIG. 2F) is a series of time-lapse images of a live HeLa cell expressing GFP:tubulin after treatment with C75 as shown in 2D) and 2E). The scale bar for all cells is 10 μm. FIG. 2G) is a schematic showing the putative target for C75. […]
# C75 was also tested for efficacy in different cancer cell lines. […] To further assess the role of C75 in affecting centrosomes, HeLa cells were treated with C75 for a short period of time (5 minutes), then C75 was removed and the cells were analyzed for spindle phenotypes (schematic in FIG. 2D). […]
smiles,measurement,setting,value
COc1ccc(S(=O)(=O)N2Cc3ccccc3-c3sc(Br)cc32)cc1 [Compound C75],IC50,[1],~100 nM
same,IC50,[2],158 nM
same,effect on growth of HCT116 spheroids,"HCT116 spheroids; 500 nM or 1 μM C75, 500 nM C75-loaded nanoparticles, over 5 days",regress the growth
same,live/dead staining of spheroids (fluorescein diacetate / propidium iodide),"HCT116 spheroids; HCT116 spheroids, 1 μM, six days","much smaller after C75-treatment, but still contained live cells"
same,concentration at which mitotic cells increase,[3],200 nM

# Reference: US11034702B2, “Thienoisoquinolines and their derivatives for the treatment of cancer” (VALORBEC, SOCIÉTÉ EN COMMANDITE, priority 2016, dated 2021)
